# In US6387955B1, “Enhanced anti-angiogenic activity of permanently charged derivatives of steroid hormones” (Pharmos Corporation, priority 1997, dated 2002):
# Tests used:
# [1] = tested on: murine endothelial cells in MCF-7 tumors; assay: Endothelial cell area in GSL-1 lectin stained MCF-7 tumor sections; format: in vivo, nude mice; settings: viable areas of tumors, three days treatment, GSL-1 staining; control tumors 14%
# Description: For specific staining of endothelial cells, paraffin-embedded sections (4 μm) were deparafinized and rehydrated. Sections were first treated with a blocking solution containing nonimmune goat serum for 30 min at room temperature and then with a 0.1 mg/ml solution of biotinylated Griffonia simplicifolia lectin (GSL-1) for 60 min. The GSL-1 lectin binds specifically to α-galactosyl residues and marks the vascular endothelium in mice. The sections were then washed with TRIS buffered saline (TBS) and treated for 30 min with avidin-biotin-peroxidase complex (Vector Laboratories, Burlingame, Calif.), after which the peroxidase was activated by incubation of the sections with 0.1 M acetate buffer (pH 5.2) containing 3% H2O2 and 3% 3-amino-9-ethylcarbazole for 5-10 min. […] The area of stained endothelial cells was determined by measuring the area above a threshold intensity (red 46-165; green 25-119; blue 37-94) of the peroxidase reaction product in each slice. […] Ten to fifteen areas per section were recorded for tumors treated three days with either the placebo and TMI.
# Vascular density of murine endothelial cells was evaluated by specific staining, using the GSL-1 lectin (the equivalent of factor VIII antibody staining for human endothelial systems) followed by color image analysis of the resulting sections. […]
# MCF-7 tumors = assay: Growth of MCF-7 tumors implanted in ventral fat pad of nude mice, tumor size by MRI; format: in vivo; settings: TMI pellet 6.3 mg 45-day release, 25 day time course
# Description: Female CD1-nu/nu athymic mice (6 weeks old) were obtained from the Weizmann Institute Department of Animal Services. MCF-7 cells, serially passed as described above, were detached from the culturing flasks with 0.03% EDTA in phosphate buffered saline (PBS) and washed several times in normal saline. Cells (10^7/innoculum) were then injected into the ventral fat pad at the level of the breast. Coincident with cell introduction, a slow-release pellet of estradiol (0.72 mg/pellet, 45-day release profile; Innovative Research, Sarasota, Fla.) was implanted subcutaneously in the flank of the animal. Mice were anesthetized with ketamine/Rompun (i.p.) for the surgical procedures. […] At this point, animals were randomized into four study groups. In the first, the estrogen pellet was removed and replaced with a slow-release TMI-laden pellet (6.3 mg, 45-day release) (n=5). In the second group, the estrogen pellet was removed and replaced with a tamoxifen pellet (n=7). The third group was treated with a blank (placebo) pellet (n=5), while the fourth group was reimplanted with an estradiol pellet (n=4). TMI and placebo-treated animals were imaged (under ketamine/Rompun anesthesia) either immediately before pellet exchange (day 0) or at day 3, 6, 12 and 25 after pellet exchange.
# MRI images were recorded with a Bruker 4.7 (tesla)/30 Biospec spectrometer (Bruker Medizintechnik, Rheinstetten, Germany). 1H Spin-echo images were recorded at 200.12 MHz using a custom-made 4.5 cm rf coil with an image data matrix of 256×128 pixels. Pilot scans of the tumors were completed using a fast transverse multi-slice spin-echo sequence (giving T1-weighted spectra; inter-echo time (TE)=16 msec, recovery time (TR)=500 msec) followed by T2-weighted sequences in which axial slices perpendicular to the spine (i.e., a coronal orientation) were recorded. In the latter case, spin-echo images were obtained using a 4 cm field of view, 1 mm slice thickness, 1.2 mm slice-to-slice distance and a four-sequence average. The TE and TR were optimized to provide the best image contrast generating values of 80 and 3200 msec, respectively. This gave a total imaging time of approximately 30 min. […] Tumor size was calculated using a slice-to-slice reconstruction in which the slice surface area was obtained from histograms provided by the resident Bruker software package using the following relationship: […]
# where XSA is the cross-sectional area of an internal slice, ES is the cross-sectional area of an edge slice, l is the slice thickness and ssd is the distance from the middle of one slice to the middle of the next. For image analysis, the average pixel intensity of viable portions of MCF-7 tumors was determined from a central tumor slice using histograms generated by the dedicated Bruker software package. […]
# [2] = tested on: MMP-2 (Gelatinase A) promoter; assay: MMP-2 (Gelatinase A) related CAT activity in transfected bovine endothelial cells; format: cell-based
# Description: Regulation of collagenase gene expression (for MMP-2 and MMP-9) was studied by measuring the activation of the relevant promoters linked to chloramphenicol acetyl transferase (CAT) as a reporter gene. The relevant vectors were introduced into the fibrosarcoma and endothelial cells by the lipofection as indicated by the manufacturer. CAT activity was determined after 3, 6 and 24 hrs either in the absence or presence of various concentrations of TMI.
# To further examine where the inhibitory effects of TMI are manifested, human fibrosarcoma cells as well as bovine endothelial cells were transfected with plasmids containing the promoters for type IV collagenase (both MMP-2 and MMP-9) and the chloramphenicol acetyl transferase (CAT) construct to act as a reporter. Simian virus-40 (SV-40) served as the positive control. TMI was added to the transfected cells at concentrations of 1, 5 and 10 μM for 2 days, at which time cell viability was confirmed by trypan blue exclusion and cell counting.
# In endothelial cells, TMI reduced CAT activity by 45% at 1.0 μM and by 80% at 10 μM.
structure (smiles),measurement,setting,value
"CC/C(=C(\c1ccccc1)c1ccc(OCC[N+](C)(C)C)cc1)c1ccccc1 [TMI, Tamoxifen methiodide]",mean percentage of endothelial cell areas,[1],5%
same,tumor regression (average shrinking),MCF-7 tumors,20%
same,reduction of CAT activity,[2]; 1.0 μM,45%
same,reduction of CAT activity,[2]; 10 μM,80%
